Patent US8211935B2, “Heterocyclic derivatives for modulation of calcium channels” (Vertex Pharmaceuticals Incorporated, priority 2004, dated 2012)
Read-outs that look alike come from different tables or passages of the source.

Target: T1, CaV2.2 (Homo sapiens, UniProt Q00975)
T1 construct: expressed in transfected cells; host or cells: HEK293
Test: VIPR optical membrane potential assay with electrical stimulation
Type: cell-based
Procedure: Antagonist properties of test compounds were assessed as follows. Cells expressing the CaV of interest were placed into microtiter plates. After an incubation period, the cells were stained with fluorescent dyes sensitive to the transmembrane potential. The test compounds were added to the microtiter plate. The cells were stimulated with electrical means to evoke a CaV dependent membrane potential change from unblocked channels, which was detected and measured with trans-membrane potential-sensitive dyes. Antagonists were detected as a decreased membrane potential response to the stimulus.
VIPR® Optical Membrane Potential Assay Method with Electrical Stimulation
The following is an example of how CaV2.2 inhibition activity is measured using the optical membrane potential method. Other subtypes are performed in an analogous mode in a cell line expressing the CaV of interest.
HEK293 cells stably expressing CaV2.2 are plated into 96-well microtiter plates. After an appropriate incubation period, the cells are stained with the voltage sensitive dyes CC2-DMPE/DiSBAC2(3) as follows.
2×CC2-DMPE=20 μM CC2-DMPE: 10 mM CC2-DMPE is vortexed with an equivalent volume of 10% Pluronic, followed by vortexing in required amount of HBSS containing 10 mM HEPES. Each cell plate will require 5 mL of 2×CC2-DMPE. 50 μL of 2×CC2-DMPE is added to wells containing washed cells, resulting in a 10 μM final staining concentration. The cells are stained for 30 minutes in the dark at RT.
Vortex in required amount of Bath X with beta-cyclodextrin. Each 96 well cell plate will require 5 ml of 2×CC2DMPE. Wash plate with ELx405 with Bath X, leaving a residual volume of 50 μL/well. Add 50 μL of 2×CC2DMPE & DISBAC6(3) to each well. Stain for 30 minutes in the dark at RT.
Allow solution to sit for 10 minutes. Slowly mix in 370 mM BaCl2. This solution can be used to solvate compound plates. Note that compound plates are made at 1.5× drug concentration and not the usual 2×. Wash CC2 stained plate, again, leaving residual volume of 50 pt. Add 100 uL/well of the AY17 solution. Stain for 15 minutes in the dark at RT. Run plate on the optical reader.
The instrument comprises a microtiter plate handler, an optical system for exciting the coumarin dye while simultaneously recording the coumarin and oxonol emissions, a waveform generator, a current- or voltage-controlled amplifier, and a device for inserting electrodes in well. Under integrated computer control, this instrument passes user-programmed electrical stimulus protocols to cells within the wells of the microtiter plate.
Insert or use electrodes into each well to be assayed.
Use the current-controlled amplifier to deliver stimulation wave pulses for 3-5 s. Two seconds of pre-stimulus recording are performed to obtain the un-stimulated intensities. Five seconds of post-stimulation recording are performed to examine the relaxation to the resting state.
Data are analyzed and reported as normalized ratios of background-subtracted emission intensities measured in the 460 nm and 580 nm channels. Background intensities are then subtracted from each assay channel. Background intensities are obtained by measuring the emission intensities during the same time periods from identically treated assay wells in which there are no cells. The response as a function of time is then reported as the ratios obtained using the following formula: […]
The data is further reduced by calculating the initial (Ri) and final (Rf) ratios. These are the average ratio values during part or all of the pre-stimulation period, and during sample points during the stimulation period. The response to the stimulus R=Rf/Ri is then calculated.
Control responses are obtained by performing assays in the presence of a compound with the desired properties (positive control), such as mibefradil, and in the absence of pharmacological agents (negative control). Responses to the negative (N) and positive (P) controls are calculated as above.

[1] = Table 3, biological assay data, read-out: IC50

T1 sequence (Q00975 whole entry): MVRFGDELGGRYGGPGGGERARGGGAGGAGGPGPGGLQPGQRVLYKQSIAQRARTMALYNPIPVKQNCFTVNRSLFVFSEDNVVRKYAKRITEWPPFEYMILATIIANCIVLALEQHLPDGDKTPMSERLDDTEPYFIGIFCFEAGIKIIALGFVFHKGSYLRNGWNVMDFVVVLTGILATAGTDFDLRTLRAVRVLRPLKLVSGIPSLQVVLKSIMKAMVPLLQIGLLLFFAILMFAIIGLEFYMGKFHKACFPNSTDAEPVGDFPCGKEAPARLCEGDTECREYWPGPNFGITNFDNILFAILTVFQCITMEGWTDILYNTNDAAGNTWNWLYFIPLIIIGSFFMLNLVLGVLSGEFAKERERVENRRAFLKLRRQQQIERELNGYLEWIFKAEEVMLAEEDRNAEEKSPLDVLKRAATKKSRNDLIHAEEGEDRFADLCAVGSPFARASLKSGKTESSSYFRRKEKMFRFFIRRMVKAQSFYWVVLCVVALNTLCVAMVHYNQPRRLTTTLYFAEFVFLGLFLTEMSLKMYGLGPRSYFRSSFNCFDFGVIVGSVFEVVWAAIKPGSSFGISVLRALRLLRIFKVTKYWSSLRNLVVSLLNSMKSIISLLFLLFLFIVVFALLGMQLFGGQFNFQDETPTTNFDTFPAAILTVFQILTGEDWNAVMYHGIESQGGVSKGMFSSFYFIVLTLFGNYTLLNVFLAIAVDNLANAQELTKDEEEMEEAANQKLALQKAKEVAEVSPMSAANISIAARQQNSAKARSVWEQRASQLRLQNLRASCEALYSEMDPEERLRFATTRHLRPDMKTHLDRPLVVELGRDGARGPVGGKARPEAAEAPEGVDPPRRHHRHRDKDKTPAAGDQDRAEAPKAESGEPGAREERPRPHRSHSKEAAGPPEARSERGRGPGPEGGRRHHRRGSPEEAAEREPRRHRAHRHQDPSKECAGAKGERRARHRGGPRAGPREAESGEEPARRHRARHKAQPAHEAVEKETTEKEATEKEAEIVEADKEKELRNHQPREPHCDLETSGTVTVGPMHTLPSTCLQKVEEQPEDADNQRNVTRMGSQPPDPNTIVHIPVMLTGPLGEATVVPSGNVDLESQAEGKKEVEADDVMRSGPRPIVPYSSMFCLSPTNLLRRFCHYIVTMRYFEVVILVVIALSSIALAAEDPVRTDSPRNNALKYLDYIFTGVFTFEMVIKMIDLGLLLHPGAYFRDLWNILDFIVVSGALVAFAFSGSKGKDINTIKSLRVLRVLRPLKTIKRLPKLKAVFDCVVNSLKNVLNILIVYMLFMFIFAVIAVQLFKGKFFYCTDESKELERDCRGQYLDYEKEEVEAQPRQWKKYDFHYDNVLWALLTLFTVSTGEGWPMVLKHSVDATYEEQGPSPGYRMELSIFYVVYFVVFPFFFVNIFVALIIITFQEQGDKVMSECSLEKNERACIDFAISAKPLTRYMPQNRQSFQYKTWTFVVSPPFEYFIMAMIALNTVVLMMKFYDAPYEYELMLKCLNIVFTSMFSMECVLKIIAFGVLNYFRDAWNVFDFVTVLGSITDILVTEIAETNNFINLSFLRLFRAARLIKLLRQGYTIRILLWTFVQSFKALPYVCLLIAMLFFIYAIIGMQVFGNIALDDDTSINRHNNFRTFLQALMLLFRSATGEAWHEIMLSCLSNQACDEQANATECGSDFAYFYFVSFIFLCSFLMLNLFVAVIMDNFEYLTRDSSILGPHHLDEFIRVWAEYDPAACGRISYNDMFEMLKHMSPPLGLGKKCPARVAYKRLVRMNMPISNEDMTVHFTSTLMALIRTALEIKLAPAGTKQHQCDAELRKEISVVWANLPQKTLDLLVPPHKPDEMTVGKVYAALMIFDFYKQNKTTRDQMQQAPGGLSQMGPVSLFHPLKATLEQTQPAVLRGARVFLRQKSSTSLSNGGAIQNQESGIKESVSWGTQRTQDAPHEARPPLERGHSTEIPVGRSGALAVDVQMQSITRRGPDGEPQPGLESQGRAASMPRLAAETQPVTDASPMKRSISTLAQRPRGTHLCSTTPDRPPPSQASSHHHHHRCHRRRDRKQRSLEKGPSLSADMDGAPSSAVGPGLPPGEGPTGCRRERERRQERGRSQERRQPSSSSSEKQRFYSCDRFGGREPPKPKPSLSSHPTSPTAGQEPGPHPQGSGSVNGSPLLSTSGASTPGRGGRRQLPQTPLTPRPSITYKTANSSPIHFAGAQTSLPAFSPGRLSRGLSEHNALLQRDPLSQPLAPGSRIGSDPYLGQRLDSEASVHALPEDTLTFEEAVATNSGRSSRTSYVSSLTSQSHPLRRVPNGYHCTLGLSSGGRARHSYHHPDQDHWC
T1 sequence (P54284 whole entry partner): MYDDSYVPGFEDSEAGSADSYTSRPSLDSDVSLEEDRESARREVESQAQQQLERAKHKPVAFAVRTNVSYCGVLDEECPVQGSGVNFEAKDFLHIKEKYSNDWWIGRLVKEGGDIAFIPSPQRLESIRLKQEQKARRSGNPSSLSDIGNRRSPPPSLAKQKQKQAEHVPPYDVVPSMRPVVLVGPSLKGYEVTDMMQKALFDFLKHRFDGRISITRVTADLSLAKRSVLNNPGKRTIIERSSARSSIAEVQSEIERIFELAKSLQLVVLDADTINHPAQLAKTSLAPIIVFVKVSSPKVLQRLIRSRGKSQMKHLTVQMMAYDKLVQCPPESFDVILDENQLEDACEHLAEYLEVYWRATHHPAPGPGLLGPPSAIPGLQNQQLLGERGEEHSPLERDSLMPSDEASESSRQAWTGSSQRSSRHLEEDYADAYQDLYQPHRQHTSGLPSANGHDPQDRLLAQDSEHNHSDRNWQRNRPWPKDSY
T1 sequence (P54289 25-946 partner limits assumed): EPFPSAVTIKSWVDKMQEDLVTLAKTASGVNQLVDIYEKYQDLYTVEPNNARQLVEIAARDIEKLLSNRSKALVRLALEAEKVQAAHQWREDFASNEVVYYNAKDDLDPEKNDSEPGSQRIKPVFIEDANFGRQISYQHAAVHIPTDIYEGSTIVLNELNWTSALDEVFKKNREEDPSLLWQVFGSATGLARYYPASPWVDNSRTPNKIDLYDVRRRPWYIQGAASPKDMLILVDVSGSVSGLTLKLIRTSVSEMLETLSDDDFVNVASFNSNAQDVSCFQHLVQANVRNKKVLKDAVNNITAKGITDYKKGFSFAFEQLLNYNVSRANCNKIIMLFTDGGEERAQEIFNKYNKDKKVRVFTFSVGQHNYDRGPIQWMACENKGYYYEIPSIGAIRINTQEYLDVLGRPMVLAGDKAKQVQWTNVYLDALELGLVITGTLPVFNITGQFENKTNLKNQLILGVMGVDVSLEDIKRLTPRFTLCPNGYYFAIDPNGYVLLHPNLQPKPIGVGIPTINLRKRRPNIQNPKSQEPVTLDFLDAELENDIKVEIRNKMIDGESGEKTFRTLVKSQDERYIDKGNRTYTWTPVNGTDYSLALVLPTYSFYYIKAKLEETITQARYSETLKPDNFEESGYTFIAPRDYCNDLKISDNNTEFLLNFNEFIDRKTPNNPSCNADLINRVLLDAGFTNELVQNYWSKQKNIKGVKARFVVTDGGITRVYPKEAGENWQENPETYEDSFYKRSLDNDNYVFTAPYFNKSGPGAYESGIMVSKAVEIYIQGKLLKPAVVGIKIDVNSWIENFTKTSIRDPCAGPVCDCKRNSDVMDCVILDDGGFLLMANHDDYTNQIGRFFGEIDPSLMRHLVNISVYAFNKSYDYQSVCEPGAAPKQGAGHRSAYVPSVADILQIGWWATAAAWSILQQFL
T1 sequence (P54289 947-1103 partner limits assumed): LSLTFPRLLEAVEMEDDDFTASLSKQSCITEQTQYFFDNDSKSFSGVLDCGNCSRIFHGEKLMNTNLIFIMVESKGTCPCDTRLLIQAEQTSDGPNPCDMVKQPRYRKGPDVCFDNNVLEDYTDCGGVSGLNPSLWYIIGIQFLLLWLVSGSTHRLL

| Structure (SMILES) | IC50 [1] | IC50 |
| --- | --- | --- |
| CCN(CC)C(=O)c1cc2cc(S(=O)(=O)N3CCCCCC3)ccc2o1 [compound 1] | 5 to 20 µM | – |
| CC1CC(C)CN(S(=O)(=O)c2ccc3oc(C(=O)NCCc4ccccc4)cc3c2)C1 (stereo not drawn) [compound 2] | < 5 µM | – |
| Cc1c(C(=O)N2CCN(C)CC2)[nH]c2ccc(S(=O)(=O)N3CCCCCC3)cc12 [compound 3] | < 20 µM | – |
| Cc1c(C(=O)N2CCC(C)CC2)oc2ccc(S(=O)(=O)N3CCC4(CC3)OCCO4)cc12 [compound 4] | 5 to 20 µM | – |
| O=C(NCCCc1ccccc1)c1cc2cc(S(=O)(=O)N3CCCCCC3)ccc2[nH]1 [compound 5] | < 5 µM | – |
| Cc1c(C(=O)NCCC2CCOCC2)oc2ccc(S(=O)(=O)N3CC(C)CC(C)C3)cc12 (stereo not drawn) [compound 6] | < 5 µM | – |
| CCN(CC)C(=O)c1[nH]c2ccc(S(=O)(=O)N3CC(C)CC(C)C3)cc2c1C (stereo not drawn) [compound 7] | < 5 µM | – |
| CC1CCN(S(=O)(=O)c2ccc3[nH]c(C(=O)NCCC4CCOCC4)cc3c2)CC1 [compound 8] | < 5 µM | – |
| Cc1c(C(=O)NC2CCCCC2)oc2ccc(S(=O)(=O)N3CCCC(C)C3)cc12 (stereo not drawn) [compound 9] | < 5 µM | – |
| CNC(=O)c1oc2ccc(S(=O)(=O)N3CCC(C)CC3)cc2c1C [compound 10] | 5 to 20 µM | – |
| CC1CCN(S(=O)(=O)c2ccc3[nH]c(CN4CCCCC4)cc3c2)CC1 [compound 11] | < 5 µM | – |
| Cc1c(C(=O)N2CCCC2)oc2ccc(S(=O)(=O)N3CCC(C)CC3)cc12 [compound 12] | 5 to 20 µM | – |
| Cc1c(C(=O)NCCc2ccccc2)[nH]c2ccc(S(=O)(=O)N3CC(C)CC(C)C3)cc12 (stereo not drawn) [compound 13] | < 5 µM | – |
| Cc1c(C(=O)N2CCCCC2C)oc2ccc(S(=O)(=O)N3CCOCC3)cc12 (stereo not drawn) [compound 14] | < 20 µM | – |
| CCN(CC)C(=O)c1oc2ccc(S(=O)(=O)N3CCC(C)CC3)cc2c1C [compound 15] | 5 to 20 µM | – |
| CC1CC(C)CN(S(=O)(=O)c2ccc3[nH]c(C(=O)NCC4CCCO4)cc3c2)C1 (stereo not drawn) [compound 16] | < 5 µM | – |
| CC1CC(C)CN(C(=O)c2cc3cc(S(=O)(=O)N4CCCCCC4)ccc3[nH]2)C1 (stereo not drawn) [compound 17] | 5 to 20 µM | – |
| Cc1c(C(=O)N2CCCC2)oc2ccc(S(=O)(=O)N3CCCCC3)cc12 [compound 18] | 5 to 20 µM | – |
| CCOC(=O)C1CCN(C(=O)c2oc3ccc(S(=O)(=O)N4CCCCCC4)cc3c2C)CC1 [compound 19] | < 5 µM | – |
| Cc1c(C(=O)NC2CC2)oc2ccc(S(=O)(=O)Nc3ncccn3)cc12 [compound 20] | < 20 µM | – |

| Structure (SMILES) | IC50 [1] | IC50 |
| --- | --- | --- |
| Cc1c(C(=O)NC(C)C)oc2ccc(S(=O)(=O)N3CC(C)CC(C)C3)cc12 (stereo not drawn) [compound 21] | < 5 µM | – |
| CNC(=O)c1oc2ccc(S(=O)(=O)N3CCOCC3)cc2c1C [compound 22] | < 20 µM | – |
| O=C(NCCC1CCOCC1)c1cc2cc(S(=O)(=O)N3CCCCCC3)ccc2o1 [compound 23] | < 5 µM | – |
| Cc1c(C(=O)NC2CC2)oc2ccc(S(=O)(=O)N(CCN(C)C)Cc3ccccc3)cc12 [compound 24] | < 20 µM | – |
| Cc1c(C(=O)NC2CC2)oc2ccc(S(=O)(=O)NCCN3CCCCC3)cc12 [compound 25] | < 20 µM | – |
| Cc1c(C(=O)N2CCCC2)oc2ccc(S(=O)(=O)N3CCOCC3)cc12 [compound 26] | < 20 µM | – |
| Cc1c(C(=O)NCCC2CCOCC2)[nH]c2ccc(S(=O)(=O)N3CCC(C)CC3)cc12 [compound 27] | 5 to 20 µM | – |
| Cc1c(C(=O)NC(C)c2ccccc2)oc2ccc(S(=O)(=O)N3CCCC3)cc12 (stereo not drawn) [compound 28] | < 20 µM | – |
| CC1CC(C)CN(C(=O)c2cc3cc(S(=O)(=O)N4CC(C)CC(C)C4)ccc3o2)C1 (stereo not drawn) [compound 29] | < 5 µM | – |
| CNC(=O)c1[nH]c2ccc(S(=O)(=O)N3CCC(C)CC3)cc2c1C [compound 30] | 5 to 20 µM | – |
| CCN(CC)C(=O)c1cc2cc(S(=O)(=O)N3CC(C)CC(C)C3)ccc2o1 (stereo not drawn) [compound 31] | < 5 µM | – |
| Cc1c(C(=O)NCC2CCCO2)oc2ccc(S(=O)(=O)N3CC(C)CC(C)C3)cc12 (stereo not drawn) [compound 32] | < 5 µM | – |
| Cc1c(C(=O)N2CC(C)CC(C)C2)oc2ccc(S(=O)(=O)N3CCC(C)CC3)cc12 (stereo not drawn) [compound 33] | 5 to 20 µM | – |
| O=C(NCc1ccccc1)c1cc2cc(S(=O)(=O)N3CCCCCC3)ccc2o1 [compound 34] | < 5 µM | – |
| Cc1c(C(=O)NC2CC2)oc2ccc(S(=O)(=O)N3CCC(F)(F)CC3)cc12 [compound 35] | 5 to 20 µM | – |
| CC1CCN(S(=O)(=O)c2ccc3[nH]c(C(=O)NCc4ccccc4)cc3c2)CC1 [compound 36] | < 5 µM | – |
| CNC(=O)c1cc2cc(S(=O)(=O)N3CC(C)CC(C)C3)ccc2[nH]1 (stereo not drawn) [compound 37] | < 5 µM | – |
| Cc1c(C(=O)NCC2CCOCC2)oc2ccc(S(=O)(=O)N3CCCCCC3)cc12 [compound 38] | 5 to 20 µM | – |
| Cc1c(C(=O)NC2CCC(C)CC2)oc2ccc(S(=O)(=O)N3CCOCC3)cc12 (stereo not drawn) [compound 39] | < 20 µM | – |
| O=C(NCCCc1ccccc1)c1cc2cc(S(=O)(=O)N3CCCCCC3)ccc2o1 [compound 40] | < 5 µM | – |

| Structure (SMILES) | IC50 [1] | IC50 |
| --- | --- | --- |
| O=C(NC1CCCC1)c1cc2cc(S(=O)(=O)N3CCCCCC3)ccc2[nH]1 [compound 41] | 5 to 20 µM | – |
| Cc1c(C(=O)N2CCCCC2C)oc2ccc(S(=O)(=O)N3CCC(C)CC3)cc12 (stereo not drawn) [compound 42] | < 5 µM | – |
| CN(Cc1ccccc1)C(=O)c1cc2cc(S(=O)(=O)N3CCCCCC3)ccc2o1 [compound 43] | < 5 µM | – |
| Cc1c(C(=O)NCc2ccccc2)oc2ccc(S(=O)(=O)N3CCCCCC3)cc12 [compound 44] | 5 to 20 µM | – |
| Cc1c(C(=O)N2CCCCCC2)oc2ccc(S(=O)(=O)N3CCCCCC3)cc12 [compound 45] | < 5 µM | – |
| CCN(CC)C(=O)c1cc2cc(S(=O)(=O)N3CCCCCC3)ccc2[nH]1 [compound 46] | < 5 µM | – |
| Cc1c(C(=O)NC(C)C)oc2ccc(S(=O)(=O)N3CCCC(C)C3)cc12 (stereo not drawn) [compound 47] | 5 to 20 µM | – |
| O=C(NCCc1ccccc1)c1cc2cc(S(=O)(=O)N3CCCCCC3)ccc2o1 [compound 48] | < 5 µM | – |
| Cc1c(C(=O)NCCCc2ccccc2)[nH]c2ccc(S(=O)(=O)N3CC(C)CC(C)C3)cc12 (stereo not drawn) [compound 49] | < 5 µM | – |
| Cc1c(C(=O)NC2CC2)oc2ccc(S(=O)(=O)Nc3ccccn3)cc12 [compound 50] | < 20 µM | – |
| CCN(CC)S(=O)(=O)c1ccc2oc(C(=O)NC)c(C)c2c1 [compound 51] | < 20 µM | – |
| CC(C)N(C(=O)c1cc2cc(S(=O)(=O)N3CCCCCC3)ccc2[nH]1)C(C)C [compound 52] | 5 to 20 µM | – |
| CC1CC(C)CN(S(=O)(=O)c2ccc3oc(C(=O)NCCCc4ccccc4)cc3c2)C1 (stereo not drawn) [compound 53] | < 5 µM | – |
| CC1CCN(S(=O)(=O)c2ccc3[nH]c(C(=O)N4CCC5(CC4)OCCO5)cc3c2)CC1 [compound 54] | – | 5 to 20 µM |
| CC1CCCN(C(=O)c2cc3cc(S(=O)(=O)N4CCCCCC4)ccc3[nH]2)C1 (stereo not drawn) [compound 55] | < 5 µM | – |
| Cc1c(C(=O)NCCCc2ccccc2)oc2ccc(S(=O)(=O)N3CC(C)CC(C)C3)cc12 (stereo not drawn) [compound 56] | < 5 µM | – |
| Cc1c(C(=O)NC(C)C2=CCCCC2)oc2ccc(S(=O)(=O)N3CCCCC3)cc12 (stereo not drawn) [compound 57] | 5 to 20 µM | – |
| Cc1c(C(=O)N2CCCC(C)C2)oc2ccc(S(=O)(=O)N3CCC(C)CC3)cc12 (stereo not drawn) [compound 58] | 5 to 20 µM | – |
| Cc1c(C(=O)N2CCCCC2C)oc2ccc(S(=O)(=O)N3CCCCC3)cc12 (stereo not drawn) [compound 59] | 5 to 20 µM | – |
| Cc1c(C(=O)N2CC(C)CC(C)C2)[nH]c2ccc(S(=O)(=O)N3CC(C)CC(C)C3)cc12 (stereo not drawn) [compound 60] | < 5 µM | – |
